US6686382B2, “Sulfonamides and derivatives thereof that modulate the activity of endothelin” (Encysive Pharmaceuticals Inc., priority 1999, dated 2004)

Assays:
[1] = test system: rats exposed to acute hypoxia; experiment: Acute hypoxia model, mean pulmonary arterial pressure (MPAP) increase; details: in vivo model, rat
Procedure: The chamber was gassed by adding N2 to the chamber intermittently from a liquid N2 reservoir. A baralyme (Allied Health Care Products, St. Louis, Mo., USA) CO2 scrubber kept the CO2 concentration <0.2%. Relative humidity within the chamber was kept <70% with anhydrous CaSO4. Boric acid was used to keep NH3 levels within the chamber at a minimum. See, Tilton et al. (2000) Pulm. Pharm. Ther. 13:87-97. In the initial experiment, effects of a test compound were assessed on mean pulmonary arterial pressure (MPAP) of rats subsequently exposed to acute hypoxia 90 min in duration. […] All catheters were connected to polyethylene (PE 20) tubing, and were exteriorized at the back of the neck by a stainless steel wire (0.018 in. diam) tunneled subcutaneously. Two days later, MPAP was recorded through the femoral and pulmonary arterial cannulas via transducers coupled to a polygraph recorder. […] Pulmonary pressure rapidly returned toward baseline values when this group was returned to room air at the end of the experiment.

CYP2C9 = target: T1, CYP2C9 (Homo sapiens, UniProt P11712); experiment: Cytochrome P450 enzyme assay, CYP2C9 (Gentest Supersomes, fluorometric); assay type: in vitro ADME; details: human recombinant enzyme, mean IC50; read-out: CP450 2C9 IC50
T1 construct: purchased Gentest Corporation P258
T1 sequence (P11712 whole entry): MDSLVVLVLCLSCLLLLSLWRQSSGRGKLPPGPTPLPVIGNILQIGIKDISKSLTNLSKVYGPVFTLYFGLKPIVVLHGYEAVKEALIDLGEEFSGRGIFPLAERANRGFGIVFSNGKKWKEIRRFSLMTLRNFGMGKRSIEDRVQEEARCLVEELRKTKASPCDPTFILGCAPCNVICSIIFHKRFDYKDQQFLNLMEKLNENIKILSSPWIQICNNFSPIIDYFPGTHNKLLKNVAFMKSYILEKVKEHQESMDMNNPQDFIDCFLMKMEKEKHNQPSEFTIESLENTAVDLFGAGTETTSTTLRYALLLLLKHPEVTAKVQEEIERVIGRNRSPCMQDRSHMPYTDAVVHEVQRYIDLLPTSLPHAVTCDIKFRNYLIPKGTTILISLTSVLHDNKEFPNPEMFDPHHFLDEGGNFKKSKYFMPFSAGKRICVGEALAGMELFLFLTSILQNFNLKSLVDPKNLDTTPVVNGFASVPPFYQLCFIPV
Procedure: In vitro assays to determine the concentration of the compounds provided herein required for 50% inhibition of substrate metabolism (IC50) by different human cytochrome P450 enzymes (2C9, 2C19, 3A4) were conducted using human recombinant cytochrome P450 enzyme assays, developed by Gentest Corporation. These assays contain Gentest Supersomes™ (specific human cytochrome P450 enzyme, co-expressed with P450 reductase and cytochrome b5), a NADPH regenerating system, substrate and a concentration range of the compounds provided herein. The fluorescent product was the measured end point for these assays. IC50s were calculated using a four-parameter logistic equation with the bottom fixed at 0% inhibition and the top fixed at 100% inhibition. (Values are the mean IC50±SD when n is greater than 1.)
Assays were conducted in 96-well microtiter plates using fluorometric assays developed by Gentest Corporation. The 12 wells in each row were used for one inhibition curve. Wells 1 to 8 contained serial 1:3 dilutions of the test compound. Wells 9 to 12 contained no inhibitor and wells 11 and 12 were blanks for background fluorescence (stop solution was added before the enzyme). All concentration curves were performed in duplicate. Incubations were initiated by the addition of enzyme and substrate to the pre-warmed reaction mixture. After a specific incubation period, the reaction was stopped by the addition of stop solution. Metabolite production per well was determined by measuring fluorescence using a fluorescent plate reader. Detailed experimental procedures for each enzyme are listed below. See, generally, Methodology of a high throughput method for measuring cytochrome P450 inhibition (Gentest Corporation, Technical Bulletin); Crespi, C. L.; Miller, V. P.; and Penman, B. W. (1997) Anal. Biochem. 248:188-190; and Geungerich, F. P. (1997) Adv. Pharm. 43:7-35.
A 0.2 ml/well reaction mixture containing 2 pmol CYP2C9 (P258), 1.3 mM NADP^+, 3.3 mM glucose-6-phosphate, 3.3 mM magnesium chloride, 0.4 U/ml glucose-6-phosphate dehydrogenase and 75 μM 7-methoxy-4-trifluoromethylcoumarin in […] (pH 7.4), was incubated at 37° C. for 45 minutes. Sulfaphenazole, a standard inhibitor of CYP2C9, was serially diluted from the highest concentration of 10 μM and acted as a positive control. […] After incubation, the reaction was stopped by the addition of 75 μl stop solution (80% acetonitrile/20% 0.5 M Tris base) and fluorescence/well was measured using a Spectra Fluor (Tecan) or Cytoflour 2350 (Millipore) fluorescent plate reader. […]
The “% inhibition” was calculated as follows: [formula]
Concentration versus % inhibition curves were constructed in Prism (GraphPad, Inc.). The data was analyzed using “Top & Bottom Fixed” routine. […]

[2] = test system: DOCA-salt hypertensive rat; experiment: Deoxycorticosterone acetate (DOCA)-salt hypertensive rat model; details: in vivo
Procedure: Selected compounds disclosed herein have been tested for activity in the deoxycorticosterone acetate (DOCA)-salt hypertensive rat model. To perform these tests, silastic MDX4-4210 elastomer implants containing 47 mg (DOCA) were prepared according to the method of Ornmsbee et al. ((1973) the J. Pharm. Sci. 62:255-257). Briefly, DOCA is incorporated into silicon rubber implants for sustained release. To prepare the implants the DOCA is incorporated into unpolymerized silicone rubber, catalyst is added and the mixture is cast in a hemicylindrical shape.
Sprague Dawley rats (7-8 weeks old) were unilaterally nephrectomized under ketamine anesthesia and a DOCA-implant was placed on the left lateral dorsal abdomen of the animal. The rats were allowed to recover for three weeks. During recovery they were permitted free access to normal rat chow and 0.9% NaCl drinking solution in place of drinking water. The rats develop hypertension within 3 weeks. […]
On the day of experimentation, catheters were inserted under brevital anesthesia into the right femoral artery for measurement of blood pressure, and into the right femoral vein for administration of a selected compound. The animals were placed in a restrainer and allowed to recover for a minimum of 60 min or until a steady mean arterial blood pressure was recorded. […] Blood pressure was recorded continuously for a further 10 hrs.

SMILES	Acute Hypoxia: dose to achieve 50% inhibition of mean pulmonary artery pressure increase [1]	IC50 (CYP2C9)	effect on blood pressure in the hypertensive rat model [2]	Acute Hypoxia: dose to achieve 50% inhibition of mean pulmonary artery pressure increase ([1]; listed as N-(2-acetyl-4,6-dimethylphenyl)-3-{[(3,4 dimethyl-5-isoxazolyl)amino]-sulfonyl}-)	Acute Hypoxia: dose to achieve 50% inhibition of mean pulmonary artery pressure increase ([1]; listed as N-(2-acetyl-4,6-dimethylphenyl)-3-{[(3,4 dimethyl-5-isoxazolyl)amino]sulfonyl}-2)	melting point
Cc1cc2c(cc1CC(=O)c1sccc1S(=O)(=O)Nc1onc(C)c1Cl)OCO2 [N-(4-chloro-3-methyl-5-isoxazolyl)-2-{[3,4-(methylenedioxy)-6-methylphenyl)acetyl]-thiophene-3-sulfonamide, reference compound]	2.5 mg/kg	30 nM				
CC(=O)c1cc(C)cc(C)c1NC(=O)c1sccc1S(=O)(=O)Nc1onc(C)c1C [Compound 7, N-(2-acetyl-4,6-dimethylphenyl)-3-{[(3,4 dimethyl-5-isoxazolyl)amino]sulfonyl}-2-thiophenecarboxamide]		7600 nM	effective in decreasing blood pressure	1 mg/kg	approximately 1 mg/kg	
Cc1cc(C)c(NC(=O)c2sccc2S(=O)(=O)Nc2onc(C)c2Cl)c(Cl)c1 [Compound 34, N-(2-chloro-4,6-dimethylphenyl)-3-{[(4-chloro-3-methyl-5-isoxazolyl)amino]sulfonyl}2-thiophenecarboxamide]		560 nM				174 to 176 °C
Cc1cc(C)c(NC(=O)c2sccc2S(=O)(=O)Nc2onc(C)c2Cl)c(S(C)(=O)=O)c1 [Compound 42, 3-{[(4-chloro-3-methyl-5-isoxazolyl)amino]sulfonyl)-N-[2,4-dimethyl-6-(methylsulfonyl)phenyl]-2-thiophenecarboxamide]		5300 nM				208 to 210 °C
